pIC50: −log10 of the molar value.
Experiments:
WEE1 = target: T1, WEE1 (Homo sapiens, UniProt P30291+Q96SW2); test: Western-blot assay of substrate protein degradation in hPBMCs, WEE1; format: cell-based; details: 24 hours of compound treatment, compounds tested at 50 nM and 500 nM (concentration of the table not stated)
T1 construct: endogenous in cells; host or cells: hPBMCs (Milecell Biotechnologies)

IKZF1 = target: T2, IKZF1 (Homo sapiens, UniProt Q13422+Q96SW2); test: Western-blot assay of substrate protein degradation in hPBMCs, IKZF1; format: cell-based; details: 24 hours of compound treatment, compounds tested at 50 nM and 500 nM (concentration of the table not stated)
T2 construct: endogenous in cells; host or cells: hPBMCs (Milecell Biotechnologies)
T2 sequence (Q13422 whole entry): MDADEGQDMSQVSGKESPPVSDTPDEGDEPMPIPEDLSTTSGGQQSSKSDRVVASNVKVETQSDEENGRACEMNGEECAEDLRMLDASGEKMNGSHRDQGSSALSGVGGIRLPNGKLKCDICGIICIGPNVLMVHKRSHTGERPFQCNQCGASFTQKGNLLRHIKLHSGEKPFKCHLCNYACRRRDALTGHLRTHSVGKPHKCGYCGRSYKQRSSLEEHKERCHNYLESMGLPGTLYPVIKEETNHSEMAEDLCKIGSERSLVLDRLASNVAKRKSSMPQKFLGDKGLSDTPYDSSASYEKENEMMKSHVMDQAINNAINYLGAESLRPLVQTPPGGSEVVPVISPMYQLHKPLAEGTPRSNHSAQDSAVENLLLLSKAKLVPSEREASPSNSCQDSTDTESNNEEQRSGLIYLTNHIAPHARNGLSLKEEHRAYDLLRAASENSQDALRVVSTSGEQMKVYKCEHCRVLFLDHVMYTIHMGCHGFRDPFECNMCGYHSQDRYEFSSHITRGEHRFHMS
T2 sequence (Q96SW2 whole entry): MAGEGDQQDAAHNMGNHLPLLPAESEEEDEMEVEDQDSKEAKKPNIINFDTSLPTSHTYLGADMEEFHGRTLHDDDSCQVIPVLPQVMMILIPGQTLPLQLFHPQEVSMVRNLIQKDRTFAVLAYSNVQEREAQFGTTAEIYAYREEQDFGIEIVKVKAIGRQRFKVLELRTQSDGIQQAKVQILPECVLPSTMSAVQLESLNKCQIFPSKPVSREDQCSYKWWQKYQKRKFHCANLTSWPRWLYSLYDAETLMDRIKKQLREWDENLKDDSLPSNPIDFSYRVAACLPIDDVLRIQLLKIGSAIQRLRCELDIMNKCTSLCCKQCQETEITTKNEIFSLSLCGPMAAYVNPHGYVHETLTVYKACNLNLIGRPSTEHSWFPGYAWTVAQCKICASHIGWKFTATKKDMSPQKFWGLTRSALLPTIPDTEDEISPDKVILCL
T2 sequence (Q16531 whole entry partner): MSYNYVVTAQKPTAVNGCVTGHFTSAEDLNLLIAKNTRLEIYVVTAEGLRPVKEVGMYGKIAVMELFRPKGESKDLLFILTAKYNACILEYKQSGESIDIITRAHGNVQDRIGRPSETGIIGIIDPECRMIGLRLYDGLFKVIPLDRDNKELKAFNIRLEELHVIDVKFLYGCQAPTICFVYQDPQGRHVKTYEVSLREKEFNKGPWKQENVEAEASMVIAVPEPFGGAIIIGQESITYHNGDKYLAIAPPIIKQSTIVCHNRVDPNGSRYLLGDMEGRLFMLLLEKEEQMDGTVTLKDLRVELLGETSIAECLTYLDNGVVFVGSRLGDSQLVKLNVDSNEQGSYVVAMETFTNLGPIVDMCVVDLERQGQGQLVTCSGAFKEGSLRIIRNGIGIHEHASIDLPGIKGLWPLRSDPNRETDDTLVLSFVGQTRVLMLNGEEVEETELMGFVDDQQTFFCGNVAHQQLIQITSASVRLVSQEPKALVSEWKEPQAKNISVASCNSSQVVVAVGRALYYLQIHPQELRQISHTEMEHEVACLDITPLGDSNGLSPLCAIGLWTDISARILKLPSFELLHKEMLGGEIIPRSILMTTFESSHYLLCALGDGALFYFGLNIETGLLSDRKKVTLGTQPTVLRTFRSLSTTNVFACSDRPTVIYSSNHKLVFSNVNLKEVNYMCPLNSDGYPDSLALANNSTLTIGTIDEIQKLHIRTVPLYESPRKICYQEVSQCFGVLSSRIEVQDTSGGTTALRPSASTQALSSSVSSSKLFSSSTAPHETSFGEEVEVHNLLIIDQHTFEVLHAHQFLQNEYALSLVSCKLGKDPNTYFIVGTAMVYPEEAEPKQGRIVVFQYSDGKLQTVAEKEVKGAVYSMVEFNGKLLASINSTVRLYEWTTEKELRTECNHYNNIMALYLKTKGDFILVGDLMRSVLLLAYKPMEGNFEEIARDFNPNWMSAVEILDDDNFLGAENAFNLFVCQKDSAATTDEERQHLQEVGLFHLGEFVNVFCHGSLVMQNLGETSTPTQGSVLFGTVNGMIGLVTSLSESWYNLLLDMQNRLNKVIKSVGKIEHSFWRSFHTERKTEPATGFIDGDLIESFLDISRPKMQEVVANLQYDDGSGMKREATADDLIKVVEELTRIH

IKZF2 = target: T3, IKZF2 (Homo sapiens, UniProt Q96SW2+Q9UKS7); test: Western-blot assay of substrate protein degradation in hPBMCs, IKZF2; format: cell-based; details: 24 hours of compound treatment, compounds tested at 50 nM and 500 nM (concentration of the table not stated)
T3 construct: endogenous in cells; host or cells: hPBMCs (Milecell Biotechnologies)

IKZF3 = target: T4, IKZF3 (Homo sapiens, UniProt Q96SW2+Q9UKT9); test: Western-blot assay of substrate protein degradation in hPBMCs, IKZF3; format: cell-based; details: 24 hours of compound treatment, compounds tested at 50 nM and 500 nM (concentration of the table not stated)
T4 construct: endogenous in cells; host or cells: hPBMCs (Milecell Biotechnologies)
T4 sequence (Q9UKT9 whole entry): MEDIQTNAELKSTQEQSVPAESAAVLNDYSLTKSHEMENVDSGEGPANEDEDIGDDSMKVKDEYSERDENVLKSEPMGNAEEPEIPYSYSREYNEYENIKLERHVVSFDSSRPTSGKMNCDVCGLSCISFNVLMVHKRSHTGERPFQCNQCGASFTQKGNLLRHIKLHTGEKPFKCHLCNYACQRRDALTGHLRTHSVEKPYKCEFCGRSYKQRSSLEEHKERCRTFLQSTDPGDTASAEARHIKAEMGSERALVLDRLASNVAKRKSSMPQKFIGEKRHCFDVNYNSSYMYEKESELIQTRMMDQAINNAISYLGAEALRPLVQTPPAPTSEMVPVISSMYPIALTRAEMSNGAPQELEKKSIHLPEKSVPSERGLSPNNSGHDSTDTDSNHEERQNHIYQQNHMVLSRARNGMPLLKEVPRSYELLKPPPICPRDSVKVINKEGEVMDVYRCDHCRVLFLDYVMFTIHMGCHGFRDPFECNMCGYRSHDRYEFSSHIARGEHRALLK
T4 sequence (Q96SW2 whole entry): as the sequence (Q96SW2 whole entry) above
T4 sequence (Q16531 whole entry partner): as the sequence (Q16531 whole entry partner) above

CK1α = target: T5, CK1α (Homo sapiens, UniProt P48729+Q96SW2); test: Western-blot assay of substrate protein degradation in hPBMCs, CK1α; format: cell-based; details: 24 hours of compound treatment, compounds tested at 50 nM and 500 nM (concentration of the table not stated)
T5 construct: endogenous in cells; host or cells: hPBMCs (Milecell Biotechnologies)
T5 sequence (P48729 whole entry): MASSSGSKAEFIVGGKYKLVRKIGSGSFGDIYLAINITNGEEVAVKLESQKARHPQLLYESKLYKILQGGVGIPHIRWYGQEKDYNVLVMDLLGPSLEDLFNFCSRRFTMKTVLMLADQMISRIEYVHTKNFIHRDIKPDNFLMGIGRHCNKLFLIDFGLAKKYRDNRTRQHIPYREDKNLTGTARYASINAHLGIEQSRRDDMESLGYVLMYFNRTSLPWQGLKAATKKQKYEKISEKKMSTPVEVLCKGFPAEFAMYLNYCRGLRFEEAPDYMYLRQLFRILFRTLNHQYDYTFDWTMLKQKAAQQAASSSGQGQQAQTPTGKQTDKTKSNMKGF
T5 sequence (Q96SW2 whole entry): as the sequence (Q96SW2 whole entry) above
T5 sequence (Q16531 whole entry partner): as the sequence (Q16531 whole entry partner) above

GSPT1 = target: T6, GSPT1 (Homo sapiens, UniProt P15170+Q96SW2); test: Western-blot assay of substrate protein degradation in hPBMCs, GSPT1; format: cell-based; details: 24 hours of compound treatment, compounds tested at 50 nM and 500 nM (concentration of the table not stated)
T6 construct: endogenous in cells; host or cells: hPBMCs (Milecell Biotechnologies)
T6 sequence (P15170 whole entry): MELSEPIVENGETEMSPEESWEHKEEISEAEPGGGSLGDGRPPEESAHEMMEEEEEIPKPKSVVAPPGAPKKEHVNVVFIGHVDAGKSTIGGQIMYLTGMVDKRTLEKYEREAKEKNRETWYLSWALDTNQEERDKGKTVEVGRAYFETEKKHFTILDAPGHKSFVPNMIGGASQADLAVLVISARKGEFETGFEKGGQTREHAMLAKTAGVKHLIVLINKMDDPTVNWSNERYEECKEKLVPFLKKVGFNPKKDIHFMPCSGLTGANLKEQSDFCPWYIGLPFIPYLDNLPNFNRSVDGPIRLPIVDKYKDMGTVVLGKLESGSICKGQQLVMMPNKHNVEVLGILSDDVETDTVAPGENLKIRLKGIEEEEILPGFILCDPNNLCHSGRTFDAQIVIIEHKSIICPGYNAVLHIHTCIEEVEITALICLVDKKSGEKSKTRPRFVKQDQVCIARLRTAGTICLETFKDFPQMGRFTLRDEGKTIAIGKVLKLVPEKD
T6 sequence (Q96SW2 whole entry): as the sequence (Q96SW2 whole entry) above
T6 sequence (Q16531 whole entry partner): as the sequence (Q16531 whole entry partner) above

[1] = target: T7, human Cereblon WT GST-tagged protein (Homo sapiens, UniProt Q96SW2); test: CRBN-binding affinity by HTRF (CEREBLON BINDING kit); details: HTRF inhibitory activity, CEREBLON BINDING kit; read-out: HTRF IC50
T7 construct: purchased CISBIO 64BDCRBNPEH
T7 sequence (Q96SW2 whole entry): as the sequence (Q96SW2 whole entry) above

SR = test: Tumor cell proliferation inhibition (CellTiter-Meiluncell Luminescent Cell Viability Assay), SR; details: Homo sapiens, read-out: inhibitory activity (IC50, nM) against tumor cells proliferation, SR
MM.1S = test: Tumor cell proliferation inhibition (CellTiter-Meiluncell Luminescent Cell Viability Assay), MM.1S; details: Homo sapiens, MM1.S, read-out: inhibitory activity (IC50, nM) against tumor cells proliferation, MM.1S
Jurkat = test: Tumor cell proliferation inhibition (CellTiter-Meiluncell Luminescent Cell Viability Assay), Jurkat; details: Homo sapiens, read-out: inhibitory activity (IC50, nM) against tumor cells proliferation, Jurkat
NCI-H1975 = test: Tumor cell proliferation inhibition (CellTiter-Meiluncell Luminescent Cell Viability Assay), NCI-H1975; details: Homo sapiens, NCI-H1975, read-out: inhibitory activity (IC50, nM) against tumor cells proliferation, H1975
TMD8 = test: Tumor cell proliferation inhibition (CellTiter-Meiluncell Luminescent Cell Viability Assay), TMD8; details: Homo sapiens, TMD8, read-out: inhibitory activity (IC50, nM) against tumor cells proliferation, TMD8

T1 sequence (P30291 whole entry): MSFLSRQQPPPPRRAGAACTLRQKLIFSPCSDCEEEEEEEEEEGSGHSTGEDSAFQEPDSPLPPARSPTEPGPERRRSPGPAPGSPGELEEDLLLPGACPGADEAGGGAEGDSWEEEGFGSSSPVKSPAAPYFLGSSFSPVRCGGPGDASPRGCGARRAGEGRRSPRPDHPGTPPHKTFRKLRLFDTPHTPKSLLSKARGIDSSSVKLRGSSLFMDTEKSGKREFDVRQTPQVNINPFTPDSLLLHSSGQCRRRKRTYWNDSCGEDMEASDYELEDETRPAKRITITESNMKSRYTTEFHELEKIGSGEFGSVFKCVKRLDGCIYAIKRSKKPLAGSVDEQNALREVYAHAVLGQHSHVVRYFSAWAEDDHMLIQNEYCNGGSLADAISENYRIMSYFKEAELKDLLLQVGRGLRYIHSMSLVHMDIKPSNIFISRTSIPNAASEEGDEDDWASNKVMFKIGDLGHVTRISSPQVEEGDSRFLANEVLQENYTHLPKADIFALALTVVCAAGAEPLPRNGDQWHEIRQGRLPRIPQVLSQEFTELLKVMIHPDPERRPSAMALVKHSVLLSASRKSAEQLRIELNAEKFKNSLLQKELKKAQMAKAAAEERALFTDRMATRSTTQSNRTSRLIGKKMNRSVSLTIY
T1 sequence (Q96SW2 whole entry): as the sequence (Q96SW2 whole entry) above
T1 sequence (Q16531 whole entry partner): as the sequence (Q16531 whole entry partner) above

Row | pIC50 [1] | IC50 (MM.1S) [nM] | IC50 (TMD8) [nM] | SMILES | Weel substrate protein remaining % (WEE1) | IKZF 1 substrate protein remaining % (IKZF1) | IKZF2 substrate protein remaining % (IKZF2) | IKZF3 substrate protein remaining % (IKZF3) | CK1a substrate protein remaining % (CK1α) | GSPT1 substrate protein remaining % (GSPT1) | IC50 (SR) [nM] | IC50 (Jurkat) [nM] | IC50 (NCI-H1975) [nM]
1 | > 6.30 | < 1 | – | O=C1CCC(N2Cc3cc(CN4CC=C(c5cccc6c(F)cccc56)CC4)ccc3C2=O)C(=O)N1 (centres unmarked) [GT-04902, 3-(5-((4-(5-fluoronaphthalen-1-yl)-3,6-dihydropyridin-1(2H)-yl)methyl)-1-oxoisoindolin-2-yl)piperidine-2,6-dione] | A (0% ≤ substrate protein remaining % ≤ 80%) | A (0% ≤ substrate protein remaining % ≤ 80%) | A (0% ≤ substrate protein remaining % ≤ 80%) | A (0% ≤ substrate protein remaining % ≤ 80%) | A (0% ≤ substrate protein remaining % ≤ 80%) | A (0% ≤ substrate protein remaining % ≤ 80%) | 5 to 10 | 1 to 5 | 1 to 5
2 | > 6.30 | 1 to 5 | – | O=C1CCC(N2Cc3cc(CN4CCC(c5noc6ccccc56)CC4)ccc3C2=O)C(=O)N1 (centres unmarked) [GT-04907, 3-(5-((4-(benzo[d]isoxazol-3-yl)piperidin-1-yl)methyl)-1-oxoisoindolin-2-yl)piperidine-2,6-dione] | A (0% ≤ substrate protein remaining % ≤ 80%) | A (0% ≤ substrate protein remaining % ≤ 80%) | A (0% ≤ substrate protein remaining % ≤ 80%) | A (0% ≤ substrate protein remaining % ≤ 80%) | B (80%< substrate protein remaining %≤ 100%) | A (0% ≤ substrate protein remaining % ≤ 80%) | – | 50 to 100 | 50 to 100
3 | – | 100 to 500 | – | O=C1CCC(N2C(=O)c3ccc(CN4CCN(c5cccc6sccc56)CC4)cc3C2=O)C(=O)N1 (centres unmarked) [GT-04915, 5-((4-(benzo[b]thiophen-4-yl)piperazin-1-yl)methyl)-2-(2,6-dioxopiperidin-3-yl)isoindoline-1,3-dione] | A (0% ≤ substrate protein remaining % ≤ 80%) | A (0% ≤ substrate protein remaining % ≤ 80%) | A (0% ≤ substrate protein remaining % ≤ 80%) | A (0% ≤ substrate protein remaining % ≤ 80%) | A (0% ≤ substrate protein remaining % ≤ 80%) | A (0% ≤ substrate protein remaining % ≤ 80%) | – | 100 to 500 | 500 to 1000
4 | 6.00 to 6.30 | 1 to 5 | 10 to 50 | O=C1CCC(N2Cc3cc(CN4CCN(c5n[nH]c6cc(F)ccc56)CC4)ccc3C2=O)C(=O)N1 (centres unmarked) [GT-05264, 3-(5-((4-(6-fluoro-1H-indazol-3-yl)piperazin-1-yl)methyl)-1-oxoisoindolin-2-yl)piperidine-2,6-dione] | A (0% ≤ substrate protein remaining % ≤ 80%) | A (0% ≤ substrate protein remaining % ≤ 80%) | A (0% ≤ substrate protein remaining % ≤ 80%) | A (0% ≤ substrate protein remaining % ≤ 80%) | A (0% ≤ substrate protein remaining % ≤ 80%) | A (0% ≤ substrate protein remaining % ≤ 80%) | – | – | –
5 | 6.00 to 6.30 | 1 to 5 | 10 to 50 | O=C1CCC(N2Cc3cc(CN4CCN(c5nc(N6CCCCC6)nc6c5SCC6)CC4)ccc3C2=O)C(=O)N1 (centres unmarked) [GT-05380, 3-(1-oxo-5-((4-(2-(piperidin-1-yl)-6,7-dihydrothieno[3,2-d]pyrimidin-4-yl)piperazin-1-yl)methyl)isoindolin-2-yl)piperidine-2,6-dione] | A (0% ≤ substrate protein remaining % ≤ 80%) | A (0% ≤ substrate protein remaining % ≤ 80%) | A (0% ≤ substrate protein remaining % ≤ 80%) | A (0% ≤ substrate protein remaining % ≤ 80%) | A (0% ≤ substrate protein remaining % ≤ 80%) | A (0% ≤ substrate protein remaining % ≤ 80%) | – | – | –

Further lines, the compound ahead of its results:

Row | SMILES | pIC50 [1] | IC50 (MM.1S) [nM] | IC50 (TMD8) [nM] | Weel substrate protein remaining % (WEE1) | IKZF 1 substrate protein remaining % (IKZF1) | IKZF2 substrate protein remaining % (IKZF2) | IKZF3 substrate protein remaining % (IKZF3) | CK1a substrate protein remaining % (CK1α) | GSPT1 substrate protein remaining % (GSPT1) | IC50 (SR) [nM] | IC50 (Jurkat) [nM] | IC50 (NCI-H1975) [nM]
6 | O=C1CCC(N2Cc3cc(CN4C5CCC4CN(c4cccc(Cl)c4Cl)C5)ccc3C2=O)C(=O)N1 (centres unmarked) [GT-04855, 3-(5-((3-(2,3-dichlorophenyl)-3,8-diazabicyclo[3.2.1]octan-8-yl)methyl)-1-oxoisoindolin-2-yl)piperidine-2,6-dione] | > 6.30 | 5 to 10 | – | A (0% ≤ substrate protein remaining % ≤ 80%) | A (0% ≤ substrate protein remaining % ≤ 80%) | A (0% ≤ substrate protein remaining % ≤ 80%) | A (0% ≤ substrate protein remaining % ≤ 80%) | B (80%< substrate protein remaining %≤ 100%) | A (0% ≤ substrate protein remaining % ≤ 80%) | 500 to 1000 | 50 to 100 | 50 to 100
7 | Cn1cc(C2CCN(Cc3ccc4c(c3)CN(C3CCC(=O)NC3=O)C4=O)CC2)c2ccc(F)cc21 (centres unmarked) [GT-04858, 3-(5-((4-(6-fluoro-1-methyl-1H-indol-3-yl)piperidin-1-yl)methyl)-1-oxoisoindolin-2-yl)piperidine-2,6-dione] | > 6.30 | < 1 | – | A (0% ≤ substrate protein remaining % ≤ 80%) | A (0% ≤ substrate protein remaining % ≤ 80%) | A (0% ≤ substrate protein remaining % ≤ 80%) | A (0% ≤ substrate protein remaining % ≤ 80%) | B (80%< substrate protein remaining %≤ 100%) | A (0% ≤ substrate protein remaining % ≤ 80%) | 5 to 10 | 1 to 5 | 1 to 5
8 | O=C1CCC(N2Cc3cc(CN4CCC(n5cnc6cc(F)ccc65)CC4)ccc3C2=O)C(=O)N1 (centres unmarked) [GT-04905, 3-(5-((4-(5-fluoro-1H-benzo[d]imidazol-1-yl)piperidin-1-yl)methyl)-1-oxoisoindolin-2-yl)piperidine-2,6-dione] | > 6.30 | 1 to 5 | – | B (80%< substrate protein remaining %≤ 100%) | B (80%< substrate protein remaining %≤ 100%) | A (0% ≤ substrate protein remaining % ≤ 80%) | A (0% ≤ substrate protein remaining % ≤ 80%) | B (80%< substrate protein remaining %≤ 100%) | A (0% ≤ substrate protein remaining % ≤ 80%) | – | 100 to 500 | 100 to 500
9 | O=C1CCC(N2Cc3cc(CN4CC=C(c5ncnc6sc7c(c56)CCCC7)CC4)ccc3C2=O)C(=O)N1 (centres unmarked) [GT-05266, 3-(1-oxo-5-((4-(5,6,7,8-tetrahydrobenzo[4,5]thieno[2,3-d]pyrimidin-4-yl)-3,6-dihydropyridin-1(2H)-yl)methyl)isoindolin-2-yl)piperidine-2,6-dione] | > 6.30 | 5 to 10 | 10 to 50 | A (0% ≤ substrate protein remaining % ≤ 80%) | A (0% ≤ substrate protein remaining % ≤ 80%) | A (0% ≤ substrate protein remaining % ≤ 80%) | A (0% ≤ substrate protein remaining % ≤ 80%) | A (0% ≤ substrate protein remaining % ≤ 80%) | A (0% ≤ substrate protein remaining % ≤ 80%) | – | – | –
